Test results published in PubChem BioAssay (NCI).
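These data come from cells grown in 96-well plates and exposed to compound for 48 hours at five concentrations. TGI is the concentration that stops growth completely.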

Experiments:
Assay in all cases: NCI-60 cell line screen, 48 h
DMS 273 small cell lung = system: DMS 273 small cell lung
TK-10 renal = system: TK-10 renal
SNB-75 CNS = system: SNB-75 CNS
SK-MEL-5 melanoma = system: SK-MEL-5 melanoma
ACHN renal = system: ACHN renal
KM12 colon = system: KM12 colon
U251 CNS = system: U251 CNS
RXF 393 renal = system: RXF 393 renal
UACC-62 melanoma = system: UACC-62 melanoma
SW-620 colon = system: SW-620 colon
786-0 renal = system: 786-0 renal
COLO 205 colon = system: COLO 205 colon
MOLT-4 leukemia = system: MOLT-4 leukemia
DMS 114 small cell lung = system: DMS 114 small cell lung
NCI-H23 lung = system: NCI-H23 lung
HOP-62 NSCLC = system: HOP-62 NSCLC
HCC-2998 colon = system: HCC-2998 colon
HCT-15 colon = system: HCT-15 colon
NCI-H522 lung = system: NCI-H522 lung
SN12C renal = system: SN12C renal
OVCAR-3 ovarian = system: OVCAR-3 ovarian
HCT-116 colon = system: HCT-116 colon
SF-268 CNS = system: SF-268 CNS
NCI-H226 lung = system: NCI-H226 lung
LOX IMVI melanoma = system: LOX IMVI melanoma
UO-31 renal = system: UO-31 renal
SNB-78 CNS = system: SNB-78 CNS
IGROV1 ovarian = system: IGROV1 ovarian
M14 melanoma = system: M14 melanoma
SK-OV-3 ovarian = system: SK-OV-3 ovarian
SK-MEL-28 melanoma = system: SK-MEL-28 melanoma
A498 renal = system: A498 renal
SNB-19 CNS = system: SNB-19 CNS
SF-295 CNS = system: SF-295 CNS
RPMI-8226 leukemia = system: RPMI-8226 leukemia
UACC-257 melanoma = system: UACC-257 melanoma
CAKI-1 renal = system: CAKI-1 renal
SF-539 CNS = system: SF-539 CNS
K-562 leukemia = system: K-562 leukemia
DLD-1 colon = system: DLD-1 colon
NCI-H460 lung = system: NCI-H460 lung
MALME-3M melanoma = system: MALME-3M melanoma
CCRF-CEM leukemia = system: CCRF-CEM leukemia
M19-MEL melanoma = system: M19-MEL melanoma
OVCAR-5 ovarian = system: OVCAR-5 ovarian
SK-MEL-2 melanoma = system: SK-MEL-2 melanoma
KM20L2 colon = system: KM20L2 colon
OVCAR-4 ovarian = system: OVCAR-4 ovarian
HT29 colon = system: HT29 colon
HOP-92 NSCLC = system: HOP-92 NSCLC
EKVX NSCLC = system: EKVX NSCLC
XF 498 CNS = system: XF 498 CNS
LXFL 529 NSCLC = system: LXFL 529 NSCLC
A549 NSCLC = system: A549 NSCLC
OVCAR-8 ovarian = system: OVCAR-8 ovarian
HOP-18 NSCLC = system: HOP-18 NSCLC
HL-60(TB) leukemia = system: HL-60(TB) leukemia
SR leukemia = system: SR leukemia

Structure (SMILES): O=C(Nc1ccccc1-c1nc2ccccc2[nH]c1=O)c1ccccc1
- TGI (DMS 273 small cell lung): 52.6 µM
- TGI (TK-10 renal): 31.6 µM
- TGI (SNB-75 CNS): 30.8 µM
- TGI (SK-MEL-5 melanoma): > 100 µM
- TGI (ACHN renal): 45 µM
- TGI (KM12 colon): > 100 µM
- TGI (U251 CNS): 49.6 µM
- TGI (RXF 393 renal): 43.6 µM
- TGI (UACC-62 melanoma): 75.2 µM
- TGI (SW-620 colon): 73.7 µM
- TGI (786-0 renal): 31 µM
- TGI (COLO 205 colon): > 100 µM
- TGI (MOLT-4 leukemia): > 100 µM
- TGI (DMS 114 small cell lung): 40.7 µM
- TGI (NCI-H23 lung): > 100 µM
- TGI (HOP-62 NSCLC): 35.9 µM
- TGI (HCC-2998 colon): 33.7 µM
- TGI (HCT-15 colon): > 100 µM
- TGI (NCI-H522 lung): 46.1 µM
- TGI (SN12C renal): 69.1 µM
- TGI (OVCAR-3 ovarian): 44 µM
- TGI (HCT-116 colon): 40.7 µM
- TGI (SF-268 CNS): 64.8 µM
- TGI (NCI-H226 lung): 60.1 µM
- TGI (LOX IMVI melanoma): 61.9 µM
- TGI (UO-31 renal): 38.3 µM
- TGI (SNB-78 CNS): 69.2 µM
- TGI (IGROV1 ovarian): 70.6 µM
- TGI (M14 melanoma): > 100 µM
- TGI (SK-OV-3 ovarian): 40.5 µM
- TGI (SK-MEL-28 melanoma): > 100 µM
- TGI (A498 renal): 51.3 µM
- TGI (SNB-19 CNS): 60.1 µM
- TGI (SF-295 CNS): 47.4 µM
- TGI (RPMI-8226 leukemia): 44.9 µM
- TGI (UACC-257 melanoma): > 100 µM
- TGI (CAKI-1 renal): 86.8 µM
- TGI (SF-539 CNS): 49.6 µM
- TGI (K-562 leukemia): > 100 µM
- TGI (DLD-1 colon): 68.2 µM
- TGI (NCI-H460 lung): 47.1 µM
- TGI (MALME-3M melanoma): 92.7 µM
- TGI (CCRF-CEM leukemia): > 100 µM
- TGI (M19-MEL melanoma): 91.2 µM
- TGI (OVCAR-5 ovarian): > 100 µM
- TGI (SK-MEL-2 melanoma): 56 µM
- TGI (KM20L2 colon): > 100 µM
- TGI (OVCAR-4 ovarian): 50.6 µM
- TGI (HT29 colon): > 100 µM
- TGI (HOP-92 NSCLC): 51.4 µM
- TGI (EKVX NSCLC): 70.3 µM
- TGI (XF 498 CNS): 49.9 µM
- TGI (LXFL 529 NSCLC): 69.2 µM
- TGI (A549 NSCLC): 69.9 µM
- TGI (OVCAR-8 ovarian): 66.1 µM

Structure (SMILES): COc1ccc2c3c([nH]c2c1[N+](=O)[O-])C(C)N(C)CC3 (stereo unspecified)
- TGI (DMS 273 small cell lung): > 100 µM
- TGI (TK-10 renal): > 100 µM
- TGI (SNB-75 CNS): > 100 µM
- TGI (SK-MEL-5 melanoma): > 100 µM
- TGI (ACHN renal): > 100 µM
- TGI (KM12 colon): > 100 µM
- TGI (U251 CNS): > 100 µM
- TGI (UACC-62 melanoma): > 100 µM
- TGI (SW-620 colon): > 100 µM
- TGI (786-0 renal): > 100 µM
- TGI (COLO 205 colon): > 100 µM
- TGI (MOLT-4 leukemia): > 100 µM
- TGI (DMS 114 small cell lung): > 100 µM
- TGI (NCI-H23 lung): > 100 µM
- TGI (HOP-62 NSCLC): > 100 µM
- TGI (HOP-18 NSCLC): 84.9 µM
- TGI (HCC-2998 colon): > 100 µM
- TGI (HCT-15 colon): > 100 µM
- TGI (NCI-H522 lung): > 100 µM
- TGI (SN12C renal): > 100 µM
- TGI (OVCAR-3 ovarian): > 100 µM
- TGI (HCT-116 colon): > 100 µM
- TGI (HL-60(TB) leukemia): > 100 µM
- TGI (NCI-H226 lung): > 100 µM
- TGI (UO-31 renal): > 100 µM
- TGI (SNB-78 CNS): > 100 µM
- TGI (IGROV1 ovarian): > 100 µM
- TGI (M14 melanoma): > 100 µM
- TGI (SK-OV-3 ovarian): > 100 µM
- TGI (SK-MEL-28 melanoma): > 100 µM
- TGI (A498 renal): > 100 µM
- TGI (SNB-19 CNS): > 100 µM
- TGI (SF-295 CNS): > 100 µM
- TGI (RPMI-8226 leukemia): > 100 µM
- TGI (UACC-257 melanoma): > 100 µM
- TGI (CAKI-1 renal): > 100 µM
- TGI (SF-539 CNS): > 100 µM
- TGI (K-562 leukemia): 40.1 µM
- TGI (DLD-1 colon): > 100 µM
- TGI (NCI-H460 lung): > 100 µM
- TGI (MALME-3M melanoma): > 100 µM
- TGI (CCRF-CEM leukemia): 95.2 µM
- TGI (M19-MEL melanoma): > 100 µM
- TGI (OVCAR-5 ovarian): > 100 µM
- TGI (SK-MEL-2 melanoma): > 100 µM
- TGI (KM20L2 colon): > 100 µM
- TGI (OVCAR-4 ovarian): > 100 µM
- TGI (HT29 colon): 42.6 µM
- TGI (HOP-92 NSCLC): > 100 µM
- TGI (EKVX NSCLC): > 100 µM
- TGI (XF 498 CNS): > 100 µM
- TGI (LXFL 529 NSCLC): > 100 µM
- TGI (A549 NSCLC): > 100 µM
- TGI (OVCAR-8 ovarian): > 100 µM

Structure (SMILES): Cc1cc(NS(=O)(=O)c2ccc(Nc3c4ccccc4nc4c(C(=O)N5CCN(CCO)CC5)cccc34)cc2)no1
- TGI (DMS 273 small cell lung): > 100 µM
- TGI (TK-10 renal): > 100 µM
- TGI (SNB-75 CNS): > 100 µM
- TGI (SK-MEL-5 melanoma): > 100 µM
- TGI (ACHN renal): > 100 µM
- TGI (KM12 colon): > 100 µM
- TGI (U251 CNS): > 100 µM
- TGI (RXF 393 renal): > 100 µM
- TGI (UACC-62 melanoma): > 100 µM
- TGI (SW-620 colon): > 100 µM
- TGI (786-0 renal): > 100 µM
- TGI (COLO 205 colon): > 100 µM
- TGI (MOLT-4 leukemia): > 100 µM
- TGI (DMS 114 small cell lung): > 100 µM
- TGI (NCI-H23 lung): > 100 µM
- TGI (HOP-62 NSCLC): > 100 µM
- TGI (HOP-18 NSCLC): > 100 µM
- TGI (HCC-2998 colon): > 100 µM
- TGI (HCT-15 colon): > 100 µM
- TGI (NCI-H522 lung): > 100 µM
- TGI (SN12C renal): > 100 µM
- TGI (OVCAR-3 ovarian): > 100 µM
- TGI (HCT-116 colon): > 100 µM
- TGI (SF-268 CNS): > 100 µM
- TGI (HL-60(TB) leukemia): > 100 µM
- TGI (NCI-H226 lung): > 100 µM
- TGI (LOX IMVI melanoma): > 100 µM
- TGI (UO-31 renal): > 100 µM
- TGI (SNB-78 CNS): > 100 µM
- TGI (IGROV1 ovarian): > 100 µM
- TGI (M14 melanoma): > 100 µM
- TGI (SK-OV-3 ovarian): > 100 µM
- TGI (SK-MEL-28 melanoma): > 100 µM
- TGI (A498 renal): > 100 µM
- TGI (SNB-19 CNS): > 100 µM
- TGI (SF-295 CNS): > 100 µM
- TGI (UACC-257 melanoma): > 100 µM
- TGI (CAKI-1 renal): > 100 µM
- TGI (SF-539 CNS): > 100 µM
- TGI (K-562 leukemia): > 100 µM
- TGI (DLD-1 colon): > 100 µM
- TGI (NCI-H460 lung): > 100 µM
- TGI (MALME-3M melanoma): > 100 µM
- TGI (CCRF-CEM leukemia): > 100 µM
- TGI (M19-MEL melanoma): > 100 µM
- TGI (OVCAR-5 ovarian): > 100 µM
- TGI (SK-MEL-2 melanoma): > 100 µM
- TGI (KM20L2 colon): > 100 µM
- TGI (SR leukemia): > 100 µM
- TGI (OVCAR-4 ovarian): > 100 µM
- TGI (HT29 colon): > 100 µM
- TGI (HOP-92 NSCLC): > 100 µM
- TGI (EKVX NSCLC): > 100 µM
- TGI (XF 498 CNS): > 100 µM
- TGI (LXFL 529 NSCLC): > 100 µM
- TGI (A549 NSCLC): > 100 µM
- TGI (OVCAR-8 ovarian): > 100 µM
